Laboratory results published in US6730665B1, “Treatment of bone cancer” (Mayo Foundation for Medical Education and Research, priority 1999, dated 2004).

Tests used:
MG63 cells [1] = assay: Cytokine and growth factor mRNA levels by RNase protection assay; format: cell-based, human; details: 10 μM
Description: Changes in steady state mRNA levels for cytokines implicated in the regulation of bone formation and resorption were measured using RNase Protection assays. For RNA isolation and RNase protection assays, MG63 cells were plated at 10^6 cells per T75 culture flask a day prior to metabolite treatment. The next day, the medium was removed and replaced with fresh medium containing 10 μM concentrations of 2ME and incubated for 12, 24, 48, and 72 hours. Cells were harvested and cell pellets were used for RNA isolation. Total cellular RNA was extracted and isolated using a modified organic solvent method and the RNA yields were determined spectrohotometrically at 260 nm. Total cellular RNA was analyzed by RNase protection assays using antisense RNA probes for transforming growth factor-beta (TGF-β), tumor necrosis factor (TNF) α and β, interleukin (IL) 1α, 1β, 1Ra, 6, 10, 12 (p35 and p40), interferon (IFN) β and γ, and lymphotoxin (LT) β. Quantitation of protected RNA fragments was performed by PhosphorImager analyses and normalized to ribosomal structural protein L32 or glyceraldehyde 3-phosphate dehydrogenase levels. Results are presented in FIG. 8 and Table 4, and are representative of 3 independent treatments.

female Fisher 344 rats = assay: Cancellous bone histomorphometry of rat proximal tibial metaphysis after oral 2ME; format: in vivo; details: 100 mg/kg/day oral gavage 13 days, mean ± SE
Description: All studies were approved by the Institutional Animal Care and Use Committee of the Mayo Clinic, Rochester, Minn. Rats were kept in plastic cages (3 per cage) under standard conditions of a 12 hr dark and 12 hr light cycle with food (Purina Laboratory rodent diet 5001, Ralston-Purina, St. Louis, Mo.) and water ad libitum. Rooms were maintained at a temperature of 24° C.
Fluorochromes were given […] tail vein.
Bone histomorphometry Histomorphometric measurements were performed with the OsteoMeasure Analysis System (OsteoMetrics, Atlanta, Ga.), which consisted of a Pentium 1133 computer coupled to a photomicroscope and image analysis system. […] The region of interest was traced, and the line lengths and area bounded by lines were calculated automatically.
Cancellous bone measurements on stained sections The proximal tibial metaphysis was dehydrated in a series of increasing concentrations of ethanol, embedded without demineralization in a mixture of methyimethacrylate-2-hydroxyethyl and methacrylate (12.5:1) to retain the fluorochrome labels, and sectioned at a thickness of 5 μm (Reichert-Jung Model 2065 Microtome, Heidelberg Germany). Sections were stained with toluidine blue. A standard sampling site was established in the secondary spongiosa of the metaphysis, 1 mm distal to the calcein label that was deposited at the metaphyseal growth plate, its center perpendicular to the long axis of each bone and extending 2.0 mm distal to the starting point. This method adjusts for longitudinal growth such that only the portion of the secondary spongiosa present throughout the experiment was sampled. A total metaphyseal area of 2.88 mm^2 was sampled for each section.
Bone volume measurements Cancellous bone area and cancellous perimeter were determined as described by Turner, R. T. et al., 1998, supra. The following indices of trabecular architecture were calculated: 1) trabecular thickness; 2) trabecular number; and 3) trabecular separation.
Bone formation measurements and calculations Bone formation rate (%/day, tissue area referent) was calculated as the double-labeled perimeter (μn) multiplied by the mineral apposition rate (μm/day) and divided by the tissue area (mm^2); bone formation rate (perimeter referent) was calculated as the double-labeled perimeter (μm) multiplied by the mineral apposition rate (μm/day) and divided by the total bone perimeter (mm); mineral apposition rate was calculated as the mean distance between the declomycin label and the calcein label by the time interval (11 days); and double-labeled perimeter (tissue are referent) was measured as the length with declomycin and calcein labels (mm/mm^2 of cancellous tissue area).
Statistical Analvses All values are expressed as mean±standard error (SE). Significant differences between groups were determined by Fisher's Protected Least Significant Difference post hoc test for multiple group comparisons following detection of significance by 1-way ANOVA. Significance was considered at p values ≦0.05.

MG63 cells [2] = assay: Apoptotic gene mRNA levels by RNase protection assay; format: cell-based, human; details: 10 μM
Description: The changes in expression of the genes that are known to antagonize or promote apoptosis were analyzed by this method. MG63 cells in triplicate cultures were treated with 10 μM 2ME. Cells were harvested at the end of 12, 24, 48 and 72 h of treatment and used for RNA isolation. Total RNA isolated from cells was analyzed by RNase protection assay using apoptosis template set for multiprobes (Pharmingen; San Diego, Calif.). Quantitation of protected RNA fragments was performed by Phosphor Imager analyses and normalized to L32 or GAP levels. The mRNA for the proapoptotic gene bak and bax were increased by 2ME treatment in MG63 cells (FIG. 7). The increase was significant within 12 h of treatment and reached a maximum (2 fold for bak; 2.5 fold for bax) at 48 h, at which time cell death by apoptosis was detected by in situ TUNEL assay.

COc1cc2c(cc1O)CC[C@@H]1[C@@H]2CC[C@]2(C)[C@@H](O)CC[C@@H]12 [2ME, 2-methoxyestradiol]
increase of TGF-β1 mRNA level (MG63 cells [1]): 177%
increase of TGF-β2 mRNA level (MG63 cells [1]): 289%
increase of TGF-β3 mRNA level (MG63 cells [1]): 178%
IFN-β mRNA (MG63 cells [1]; 12-72 hours): Increased
IFN-γ mRNA (MG63 cells [1]; 12-72 hours): Not detected
IL-1 Ra mRNA (MG63 cells [1]; 12-72 hours): Not detected
IL-1α mRNA (MG63 cells [1]; 12-72 hours): Not detected
IL-1β mRNA (MG63 cells [1]; 12-72 hours): Not detected
IL-6 mRNA (MG63 cells [1]; 12-72 hours): Not detected
IL-10 mRNA (MG63 cells [1]; 12-72 hours): Not detected
IL-12 p35 mRNA (MG63 cells [1]; 12-72 hours): Not detected
IL-12 p40 mRNA (MG63 cells [1]; 12-72 hours): Not detected
LT-β mRNA (MG63 cells [1]; 12-72 hours): Not detected
TGF-β1 mRNA (MG63 cells [1]; 12-72 hours): Increased
TGF-β2 mRNA (MG63 cells [1]; 12-72 hours): Increased
TGF-β3 mRNA (MG63 cells [1]; 12-72 hours): Increased
TNF-α mRNA (MG63 cells [1]; 12-72 hours): Not detected
TNF-β mRNA (MG63 cells [1]; 12-72 hours): Not detected
maximum increase of interferon-β mRNA level (MG63 cells [1]; by 48 h): 2100%
increase of interferon-β mRNA level (MG63 cells [1]; within 12 h): 500%
BFR/BS (female Fisher 344 rats): 0.35 ± 0.03 %/day
BV/TV (female Fisher 344 rats): 17.7 ± 1.9%
Mineral Apposition Rate (female Fisher 344 rats): 172 ± 0.05 μm/day
Tb.Sp (female Fisher 344 rats): 297 ± 46 μm
Tb.Th (female Fisher 344 rats): 57 ± 2 μm
maximum increase of bak mRNA (MG63 cells [2]; 48 h): 2 fold
maximum increase of bax mRNA (MG63 cells [2]; 48 h): 2.5 fold
mRNA levels for bak and bax (in words) (MG63 cells [2]; 72 h): returned to basal level
